Measured values reported in patent US20230148599A1, “FUNGICIDAL MIXTURES CONTAINING PYRAZOLE DERIVATIVES” (FMC Corporation, priority 2020, published 2023).

Experiments:
Type in all cases: in vivo
Conditions in all cases: 50 ppm, 100 = 100% disease control, 0 = no control
Septoria tritici = assay: Test A: wheat leaf blotch, preventive spray on wheat seedlings
In short: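 Preventive test: one day after spraying seedlings to run-off (concentrations in ppm; acetone/water, 250 ppm PEG400), Septoria tritici spores applied. Scored after 48 h humid incubation at 24 °C plus 17 days at 20 °C, as percent disease control versus untreated controls (100 = full control).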

[1] = test system: Puccinia recondita f. sp. tritici; assay: Test B: wheat leaf rust, preventive spray on wheat seedlings
In short: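 Preventive test: compound in acetone/water 50/50 with 250 ppm PEG400 was sprayed onto wheat seedlings one day before inoculation with leaf rust spores. After 24 h in saturated air and 7 days in a growth chamber, both at 20 °C, disease control was scored from 0 to 100 against controls.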

[2] = test system: Blumeria graminis f. sp. tritici; assay: Test C: wheat powdery mildew, preventive spray on wheat seedlings
In short: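 Preventive test: inoculation with spore dust came one day after spraying seedlings to run-off with ppm suspensions in acetone/water (50/50) plus 250 ppm PEG400 surfactant. Visual ratings after 8 days' incubation at 20° C give percent disease control relative to controls.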

Phakopsora pachyrhizi = assay: Test D: Asian soybean rust, preventive spray on soybean seedlings
In short: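 Compounds in acetone/water (50/50) with 250 ppm PEG400, dosed in ppm, sprayed to run-off on soybean seedlings; inoculated with P. pachyrhizi spores next day. Held 24 h at 22 °C in saturated air, then 8 days at 22 °C; visual rating of disease control, 0–100, relative to untreated controls.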

Botrytis cinerea = assay: Test E: tomato Botrytis, preventive spray on tomato seedlings
In short: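 Preventive test: seedlings sprayed to run-off with compound in acetone/water (50/50) plus 250 ppm PEG400, inoculated one day later with B. cinerea spores. Held 48 h saturated at 20° C, then 3 days at 24° C; disease control scored visually from 0 to 100 versus controls.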

Alternaria solani = assay: Test F: tomato early blight, preventive spray on tomato seedlings
In short: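 Preventive test: one day after the compound spray, seedlings were inoculated with A. solani, incubated saturated at 27 °C for 48 h, then kept at 20 °C for 3 days. Test suspensions contained acetone/water 50/50 with 250 ppm PEG400 surfactant. Visual ratings run from 0 (no control) to 100 (full control).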

SMILES | Test A disease control rating (Septoria tritici) [%] | Test B disease control rating [1] [%] | Test C disease control rating [2] [%] | Test D disease control rating (Phakopsora pachyrhizi) [%] | Test E disease control rating (Botrytis cinerea) [%] | Test F disease control rating (Alternaria solani) [%]
Cc1ccc(Nc2c(-c3c(F)cccc3F)c(C)nn2C)c([N+](=O)[O-])c1 [compound 105] | 99 | 74 | 86 | 0 | 73 | 0
COc1ccc(-c2c(C)nn(C)c2Nc2c(F)cc(F)cc2[N+](=O)[O-])c(Cl)c1 [compound 64] | 100 | 100 | 98 | 97 | 98 | 99
Cc1nn(C)c(Nc2c(F)cc(F)cc2[N+](=O)[O-])c1-c1ccc(Cl)cc1Cl [compound 9] | 100 | 100 | 97 | 0 | 97 | 99
Cc1nn(C)c(Nc2ccccc2[N+](=O)[O-])c1-c1ccc(C#N)cc1F [compound 134] | 100 | 23 | 71 | 0 | 70 | 0
Cc1nn(C)c(Nc2c(F)cc(Cl)cc2[N+](=O)[O-])c1-c1ccc(F)cc1F [compound 102] | 100 | 100 | 100 | 48 | 99 | 99
COc1cc(F)c(Nc2c(-c3ccc(F)cc3Br)c(C)nn2C)c([N+](=O)[O-])c1 [compound 165] | 99 | 100 | 98 | 94 | 100 | 100
Cc1ccc(Nc2c(-c3ccc(C#N)cc3Cl)c(C)nn2C)c([N+](=O)[O-])c1 [compound 14] | 100 | 97 | 83 | 48 | 96 | 83
Cc1nn(C)c(Nc2c(F)cc(Br)cc2[N+](=O)[O-])c1-c1ccc(Cl)cc1Cl [compound 132] | 100 | 98 | 47 | 0 | 99 | 96
COc1cc(F)c(-c2c(C)nn(C)c2Nc2c(Cl)cc(Cl)cc2[N+](=O)[O-])c(F)c1 [compound 82] | 100 | 100 | 58 | 59 | 96 | 97
CCc1nn(C)c(Nc2c(F)cc(C)cc2[N+](=O)[O-])c1-c1ccc(F)cc1F [compound 185] | 100 | 100 | 99 | 0 | 96 | 99
CCc1nn(C)c(Nc2c(F)cccc2[N+](=O)[O-])c1-c1ccc(F)cc1F [compound 46] | 100 | 98 | 99 | 0 | 99 | 81
Cc1nn(C)c(Nc2c(F)cc(Br)cc2[N+](=O)[O-])c1-c1ccc(C#N)cc1Cl [compound 155] | 99 | 99 | 90 | 0 | 100 | 93
Cc1nn(C)c(Nc2c(F)cc(F)cc2[N+](=O)[O-])c1-c1c(F)cc(F)cc1Cl [compound 199] | 99 | 100 | 100 | 100 | 99 | 100
Cc1nn(C)c(Nc2c([N+](=O)[O-])ccc(F)c2F)c1-c1ccc(F)cc1Cl [compound 7] | 100 | 99 | 94 | 96 | 99 | 89
Cc1nn(C)c(Nc2c(F)cc(F)cc2[N+](=O)[O-])c1-c1ccc(Cl)cc1F [compound 13] | 100 | 99 | 97 | 19 | 68 | 89
Cc1nn(C)c(Nc2ccccc2[N+](=O)[O-])c1-c1c(F)cc(Cl)cc1F [compound 168] | 100 | 74 | 97 | 0 | 99 | 40
COc1cc(F)c(-c2c(C)nn(C)c2Nc2ccccc2[N+](=O)[O-])c(F)c1 [compound 147] | 96 | 86 | 97 | 0 | 100 | 99
Cc1ccc(Nc2c(-c3ccc(F)cc3Cl)c(C)nn2C)c([N+](=O)[O-])c1 [compound 26] | 100 | 99 | 94 | 77 | 100 | 68
Cc1nn(C)c(Nc2c(F)cc(Cl)cc2[N+](=O)[O-])c1-c1c(F)cccc1F [compound 98] | 100 | 97 | 93 | 0 | 99 | 98
Cc1ccc(Nc2c(-c3c(F)cc(F)cc3Br)c(C)nn2C)c([N+](=O)[O-])c1 [compound 196] | 100 | 99 | 98 | 0 | 98 | 91
COc1ccc(Nc2c(-c3c(F)cc(F)cc3Br)c(C)nn2C)c([N+](=O)[O-])c1 [compound 164] | 100 | 100 | 98 | 0 | 100 | 99
Cc1nn(C)c(Nc2ccc(Br)cc2[N+](=O)[O-])c1-c1ccc(F)cc1Cl [compound 91] | 99 | 88 | 84 | 0 | 99 | 26
